In data set [1] the test system is Oryza sativa. As to the kind of experiment: Toxicity in Oryza sativa (rice) assessed as shoot length after 7 days by hydroponics test. It counts as organism-based. The following applies: 168 h, read-out: I50.
Data set [2] relates to Echinochloa oryzicola. As to the kind of experiment: Herbicidal activity against 2.5-leaf stage of Echinochloa oryzicola assessed as growth inhibition at 2.5 g/a by greenhouse test in presence of fenitrothion. The data set is classed as functional, organism-based.
For data set [3], the system named is Echinochloa oryzicola. As to the kind of experiment: Herbicidal activity against Echinochloa oryzicola assessed as shoot length after 7 days by hydroponics test. The data set is classed as functional, organism-based. The following applies: 168 h, read-out: I50.
Data set [4] concerns Echinochloa oryzicola. As to the kind of experiment: Herbicidal activity against 2.5-leaf stage of Echinochloa oryzicola assessed as growth inhibition at 2.5 g/a by greenhouse test in presence of triphenyl phosphate. It counts as functional, organism-based.
Data set [5] concerns Echinochloa oryzicola. As to the kind of experiment: Herbicidal activity against Echinochloa oryzicola assessed as shoot length after 7 days by hydroponics test in presence of 1-aminobenzotriazole. It counts as functional, organism-based.
Data set [6] concerns Oryza sativa. As to the kind of experiment: Toxicity in zero transplanted Oryza sativa (rice) assessed as growth inhibition at 5 to 10 g/a by greenhouse test in presence of triphenyl phosphate. The data set is classed as organism-based. The following applies: in vivo.
The subject of data set [7] is Echinochloa oryzicola. As to the kind of experiment: Drug metabolism in 2.5-leaf stage Echinochloa oryzicola assessed as 1-[1-(3,5-dichlorophenyl)-1-methylethyl]-4-methyl-3-phenyl-3-pyrrolin-2-one level per gram of fresh weight at 25 nM after 6 days. The data set is classed as ADME, organism-based. The following applies: in vivo, 144 h, 0.025 µM.
Data set [8] has as its system Oryza sativa. As to the kind of experiment: Drug metabolism in 2.5-leaf stage Oryza sativa (rice) assessed as 1-[1-(3,5-dichlorophenyl)-1-methylethyl]-4-methyl-3-phenyl-3-pyrrolin-2-one level per gram of fresh weight at 25 nM after 6 days. It counts as ADME, organism-based. The following applies: in vivo, 144 h, 0.025 µM.
The nature of data set [9]: Drug metabolism assessed as formation of 1-[1-(3,5-dichlorophenyl)-1-methylethyl]-4-methyl-3-phenyl-3-pyrrolin-2-one in presence of porcine esterase and 1 uM triphenyl phosphate. It counts as physicochemical. The following applies: pig, isolated protein.
Data set [10] in a line: Drug metabolism assessed as formation of 1-[1-(3,5-dichlorophenyl)-1-methylethyl]-4-methyl-3-phenyl-3-pyrrolin-2-one in presence of porcine esterase. It counts as physicochemical. The following applies: pig, isolated protein.
Data set [11] concerns Oryza sativa. As to the kind of experiment: Toxicity in 2 cm transplanted Oryza sativa (rice) assessed as growth inhibition at 10 g/a by greenhouse test. It counts as organism-based. The following applies: in vivo.
Data set [12] is described as follows: Drug metabolism assessed as formation of 1-[1-(3,5-dichlorophenyl)-1-methylethyl]-4-methyl-3-phenyl-3-pyrrolin-2-one in presence of porcine esterase and 10 uM triphenyl phosphate. It counts as physicochemical. The following applies: pig, isolated protein.
Data set [13] can be described thus: Drug metabolism assessed as parent compound level in presence of porcine esterase. It counts as physicochemical. The following applies: pig, isolated protein.
Data set [14] has as its system Echinochloa oryzicola. As to the kind of experiment: Herbicidal activity against Echinochloa oryzicola assessed as shoot length after 7 days by hydroponics test in presence of triphenyl phosphate. It counts as functional, organism-based.
Data set [15] has as its system Oryza sativa. As to the kind of experiment: Toxicity in zero transplanted Oryza sativa (rice) assessed as growth inhibition at 5 to 10 g/a by greenhouse test. It counts as organism-based. The following applies: in vivo.
In data set [16] the test system is Echinochloa oryzicola. As to the kind of experiment: Herbicidal activity against 2.5-leaf stage of Echinochloa oryzicola assessed as growth inhibition at 2.5 g/a by greenhouse test. It counts as functional. The following applies: read-out: GI.
For data set [17], the system named is Oryza sativa. As to the kind of experiment: Toxicity in zero transplanted Oryza sativa (rice) assessed as growth inhibition at 5 to 10 g/a by greenhouse test in presence of fenitrothion. The data set is classed as organism-based. The following applies: in vivo.
The nature of data set [18]: Drug metabolism assessed as parent compound level in presence of porcine esterase and 10 uM of triphenyl phosphate. The data set is classed as physicochemical. The following applies: pig, isolated protein.
In data set [19] the test system is Echinochloa oryzicola. As to the kind of experiment: Herbicidal activity against Echinochloa oryzicola assessed as shoot length after 7 days by hydroponics test in presence of tributylphosphate. The data set is classed as functional, organism-based.
Data set [20] can be described thus: Drug metabolism assessed as parent compound level in presence of porcine esterase and 1 uM of triphenyl phosphate. The data set is classed as physicochemical. The following applies: pig, isolated protein.
The test system of data set [21] is Echinochloa oryzicola. As to the kind of experiment: Herbicidal activity against Echinochloa oryzicola assessed as shoot length after 7 days by hydroponics test in presence of fenitrothion. The data set is classed as functional, organism-based.

Calls of active or inactive are those of the source. No cut-off for these calls is given here.

Consider `CC1=C(c2ccccc2)C(=O)N(C(C)(C)c2cc(Cl)cc(Cl)c2)C1`, for which the IC50 in the data set on Oryza sativa [1] was 115 nM; in the data set with Echinochloa oryzicola [3], 12 nM. In addition, the “growth inhibition (GI)” value in the data set on Echinochloa oryzicola [2] and with Echinochloa oryzicola [4] was “Active” each time.
With `COC(=O)C1(c2ccccc2)C(=O)N(C(C)(C)c2cc(Cl)cc(Cl)c2)C=C1C` (stereo not given), the IC50 in the data set on Oryza sativa [1] was 2630 nM; in the data set on Echinochloa oryzicola [3], 25 nM. Besides, the outcome in the data set on Echinochloa oryzicola [5] and in the data set with Echinochloa oryzicola [19] was Active. Besides, the Activity result in the data set on Oryza sativa [6] is listed as “Non-toxic”; with Oryza sativa [11], “Non-toxic”; with Oryza sativa [15] it was “Toxic”; with Oryza sativa [17] it was “Non-toxic”. Besides, the Drug metabolism amounted to 1.88 nM in the data set with Echinochloa oryzicola [7]; 0.47 nM with Oryza sativa [8]; 2.69 µM in data set [9]; 3 µM in [10]; 0.66 µM in [12]; 1.97 µM in data set [13]. For the same compound, the Drug metabolism in data set [18] was 4.26 µM; in data set [20] it was 2.5 µM. The “growth inhibition (GI)” value in the data set with Echinochloa oryzicola [2] and with Echinochloa oryzicola [4] was “inactive” in each case. The outcome with Echinochloa oryzicola [14] and in the data set with Echinochloa oryzicola [21] was inactive. In addition, in the data set with Echinochloa oryzicola [16], the inhibition of growth at 250 g/ha was found to be 96%.

Source of the values: ChEMBL document CHEMBL3045932 (J Pestic Sci, 2005).
